# According to article PMC11091889, “Silver Organometallics that are Highly Potent Thioredoxin and Glutathione Reductase Inhibitors: Exploring the Correlations of Solution Chemistry with the Strong Antibacterial Effects” (ACS Infectious Diseases, 2024):
# Experiments:
# [1] = system: E. faecium (DSM 20477, ATCC 19434); assay: Broth microdilution antibacterial assay; format: cell-based, Enterococcus faecium; conditions: n = 3, TSY; for MIC E. faecium / EC50: mean ± standard error; for MIC E. faecium / MIC E. faecium (value in brackets): 22 h; for EC50: read-out: EC50 E. faecium
# Description: (§1) The antibacterial effect of the silver NHC complexes and selected ligands was evaluated in two Gram-positive [Enterococcus faecium, methicillin resistant S. aureus, (MRSA)] and in four Gram-negative (Acinetobacter baumannii, Escherichia coli, Klebsiella pneumoniae, and Pseudomonas aeruginosa) pathogenic bacterial strains using broth microdilution assays. The resulting minimal inhibitory concentrations (MICs, Table 2) and EC50 (Table S6) were determined by a curve fitting procedure. Silver nitrate (AgNO3), SSD, and various antibiotics were used as references.
# (§2) The following strains of ESKAPE panel were utilized and maintained at 37 °C in MHB (21 g/L Müller Hinton broth, pH 7.4) or TSY (30 g/L trypticase soy broth, 3 g/L yeast extract, pH 7.0–7.2) media: A. baumannii (DSM 30007, ATCC 19606), E. coli (DSM1116, ATCC 9637), K. pneumoniae (DSM 11678, ATCC33495), P. aeruginosa PA7 (DSM 24068) in MHB; E. faecium (DSM 20477, ATCC 19434), and S. aureus MRSA (DSM 11822, ICB 25701) in TSY. MIC values were determined following a standardized protocol in broth microdilution assays. The compounds and reference substances (AgNO3 and SSD) were serially diluted from 64 to 1 μg/mL. Starting inocula of 2–8 × 10^5 CFU/mL in MHB or TSY media at 37 °C were used, and serial dilutions were carried out in 96-well microtiter plates in duplicate. After incubation of the plates for 22 h at 37 °C, the absorbance at 600 nm was measured using The Spark multimode microplate reader (Tecan Trading AG). The MIC values for the tested compounds were determined in three independent experiments and presented in μM with standard errors and also in μg/mL. Amikacin (P. aeruginosa), linezolid (S. aureus), and ciprofloxacin (all other strains) served as positive controls. The MIC and EC50 values were determined by curve fitting with Sigma Plot. To determine the effect of the culture medium on the activity of silver compounds, the assay was performed using MHB, TSY, or DMEM (Gibco). To observe the effect of individual components of TSY medium, antibacterial tests were performed using MHB with addition of tryptone (17 g/L) or yeast extract (3 g/L, both were purchased from Sigma).
# [2] = system: K. pneumoniae (DSM 11678, ATCC33495); assay: Broth microdilution antibacterial assay; format: cell-based, Klebsiella pneumoniae; conditions: n = 3, MHB; for MIC K. pneumoniae / EC50: mean ± standard error; for MIC K. pneumoniae / MIC K. pneumoniae (value in brackets): 22 h; for EC50: read-out: EC50 K. pneumoniae
# Description: as §1, §2
# [3] = system: E. coli (DSM1116, ATCC 9637); assay: microbe, parasite or virus in culture; format: cell-based, Escherichia coli; conditions: n = 3, MHB; for EC50 / MIC E. coli: mean ± standard error; for MIC E. coli / MIC E. coli (value in brackets): 22 h
# Description: as §1, §2
# [4] = system: S. aureus MRSA (DSM 11822, ICB 25701); assay: microbe, parasite or virus in culture; format: cell-based, methicillin resistant S. aureus; conditions: n = 3, TSY; for MIC MRSA / EC50: mean ± standard error; for MIC MRSA / MIC MRSA (value in brackets): 22 h; for EC50: read-out: EC50 MRSA
# Description: as §1
# The importance of the culture medium used in antibacterial assays has been pointed out for antibiotics and in particular for silver.[53]−[55] In our recent studies, tryptic soy yeast (TSY) broth has been used for growing Gram-positive bacteria. Two components thereof, tryptone and yeast extract, have been reported to affect the antibacterial activity of silver nitrate.[55] Moreover, such an effect was also observed for other media containing at least one of those components.[11],[53] […] Silver nitrate served as a reference, and three different growth media were studied, namely, Müller-Hinton Broth (MHB, commonly used for Gram-negative bacteria), TSY broth (commonly used for Gram-positive bacteria), and DMEM supplemented with 10% FCS (commonly used for growth of mammalian and human cells).
# as §2
# [5] = system: P. aeruginosa (PA 14) biofilm; assay: Inhibition of biofilm formation, crystal violet staining; format: cell-based, Pseudomonas aeruginosa; conditions: for smallest active concentration for biofilm inhibition: concentration at which the % inhibition was found; for biofilm inhibition: ± SD, n = 4, at the respective smallest active concentration, 24 h
# From the text: Silver and its complexes can strongly affect the growth of biofilms.[56]−[58] In view of the promising activity against Gram-negative bacteria as mentioned above, we evaluated the inhibiting effect of the silver complexes on biofilm production by P. aeruginosa by a method based on crystal violet staining (Table 4 and Figure S14). Complexes 3a–c and 4a–c were selected for the test based on the results of solubility, stability, and antibacterial screening. […] The lower activity of 3c might be explained by its lower kinetic solubility in the aqueous environment (see Figure 4).
# The antibiofilm activity was determined according to a literature method.[73] A 1 mL aliquot of P. aeruginosa (PA 14) was taken from −20 °C stock, incubated in 25 mL LB medium (Luria–Bertani Broth) in a 250 mL flask, and kept at 37 °C at 100 rpm overnight. The optical density at 600 nm (OD600) of the culture solution was adjusted to match the turbidity of a 0.1 McFarland standard in M63 medium.[74] Selected compounds were mixed with 150 μL of bacterial solution in U-bottom 96 well plates to the final respective concentrations (25–0.2 μg/mL). The plates were further incubated at 37 °C for 24 h while shaking at 150 rpm. Afterward, the plates were rinsed once with 150 μL of PBS buffer, and the biofilms were stained using 150 μL of crystal violet (0.1%) staining at room temperature for 15 min and then rinsed once with PBS buffer. After rinsing, 150 μL of ethanol (95%) was added, and the absorbance was quantified using a plate reader (Synergy 2, BioTek, Santa Clara, USA) at 550 nm. The resulting antibiofilm activity is presented as percentage of inhibition at the respective smallest active concentration in μM with standard deviation (SD) of two repeats with duplicates. Myxovalargin A and DMSO (2.5%) were used as the positive and negative controls, respectively.
# [6] = system: A. baumannii (DSM 30007, ATCC 19606); assay: Broth microdilution antibacterial assay; format: cell-based, Acinetobacter baumannii; conditions: n = 3, MHB; for MIC A. baumannii / EC50: mean ± standard error; for MIC A. baumannii / MIC A. baumannii (value in brackets): 22 h; for EC50: read-out: EC50 A. baumannii
# Description: as §1, §2
# [7] = Conductometry: molar conductivity of silver complexes in DMSO; format: physicochemical; conditions: 1.0 mM in DMSO, calculated as monocarbene (NHC)AgX
# Description: Since both the neutral monocarbene and the ionic biscarbene form of the complexes may exist in various proportions in the solution, conductometry studies were performed to reveal the dominant structure. The molar conductivity of 1.0 mM solutions of each complex in DMSO was determined after different periods up to 24 h using AgNO3 as 1:1 electrolyte reference (see Table 1). According to the literature, the expected range of molar conductivity for 1:1 electrolytes in DMSO is 35–90 S cm^2 mol^–1.[45],[46]
# Conductivity measurements were performed using an Apera Instruments EC9500 conductivity meter. Solutions (as indicated, otherwise 1.0 mM) of all compounds were prepared using freshly distilled DMSO with a specific electrical conductivity of ≤3 × 10^–8 S cm^–1. The conductivities were measured at 25 ± 2 °C immediately after complete dissolution and after 24 h.
# [8] = system: P. aeruginosa PA7 (DSM 24068); assay: microbe, parasite or virus in culture; format: cell-based, Pseudomonas aeruginosa; conditions: n = 3, MHB; for MIC P. aeruginosa / EC50: mean ± standard error; for MIC P. aeruginosa / MIC P. aeruginosa (value in brackets): 22 h; for EC50: read-out: EC50 P. aeruginosa
# Description: as §1, §2
# [9] = system: Caco-2 cells; conditions: read-out: Cytotoxicity IC50 Caco-2; 24 h, almost confluent cell layers, highest concentration 100 μM
# Description: Besides the antimicrobial effects, the toxic effects of silver ions have to be considered.[10],[12] As a primary evaluation of the cell toxicity triggered by silver NHC complexes, almost confluent cell layers of CaCo-2 cells were grown and challenged for 24 h with the silver complexes and also with the silver reference compounds AgNO3 and SSD (see Figure 6).
# Caco-2 cells were grown as almost confluent monolayers in 96-well plates. The complexes were dissolved in wells of 96-well plates as stock solutions in DMSO (0.2% v/v) diluted with DMEM cell culture medium, which was supplemented with 10% fetal calf serum and 50 mg/L gentamicin. The cell layers were incubated with the drug containing media for 24 h at 37 °C/5% CO2 in an incubator. The cell viability was determined using crystal violet (0.02%) staining and was calculated as percentage of an untreated control. Results were obtained in three independent experiments.
SMILES,MIC E. faecium [1] [µM],EC50 [1] [µM],MIC E. faecium (value in brackets) [1] [µg/mL],MIC K. pneumoniae [2] [µM],EC50 [2] [µM],MIC K. pneumoniae (value in brackets) [2] [µg/mL],EC50 [3] [µM],MIC E. coli [3] [µM],MIC E. coli (value in brackets) [3] [µg/mL],MIC MRSA [4] [µM],EC50 [4] [µM],MIC MRSA (value in brackets) [4] [µg/mL],MIC A. baumannii [6] [µM],EC50 [6] [µM],MIC A. baumannii (value in brackets) [6] [µg/mL],Molar conductivity ΛM ([7]; 1 h after dissolution) [S cm^2 mol^–^1],Molar conductivity ΛM ([7]; 24 h after dissolution) [S cm^2 mol^–^1],MIC P. aeruginosa [8] [µM],EC50 [8] [µM],MIC P. aeruginosa (value in brackets) [8] [µg/mL],other results
"COCCn1[c](=[Ag][Br])n(Cc2ccccn2)c2ccccc21 [4b, Bromido (1-(2-Methoxyethyl)-3-(pyridin-2-ylmethyl)-benzimidazol-2-ylidene) Silver(I)]",141 ± 0.0,120 ± 0.8,64,17.6 ± 0.0,9.8 ± 1,8,59.2 ± 4.3,70.3 ± 0.0,32,141 ± 0.0,78.3 ± 2,64,11.7 ± 2.9,2.1 ± 0.1,5,5.11,5.08,23.4 ± 5.9,8.6 ± 1.1,11,smallest active concentration for biofilm inhibition [5]: 6.8 µM; biofilm inhibition [5]: 70 ± 5%
"CCn1[c](=[Ag][I])n(Cc2ccccn2)c2ccccc21 [2c, Iodido (1-Ethyl-3-(pyridin-2-ylmethyl)-benzimidazol-2-ylidene) Silver(I)]",> 136,> 136,> 64,11.3 ± 2.8,5.9 ± 1.7,5,12.8 ± 1.1,16.9 ± 0.0,8,> 136,> 136,> 64,8.5 ± 0.0,2.9 ± 0.5,4,6.98,6.28,45.2 ± 11.3,14.2 ± 0.8,21,IC50 [9]: > 100 µM
"Cn1[c](=[Ag][I])n(Cc2ccccn2)c2ccccc21 [1c, Iodido (1-Methyl-3-(pyridin-2-ylmethyl)-benzimidazol-2-ylidene) Silver(I)]",> 140,> 140,> 64,5.1 ± 1.9,2 ± 0.2,2,6.4 ± 1.1,11.6 ± 2.9,5,> 140,> 140,> 64,8.7 ± 0.0,4.1 ± 0.4,4,7.82,8.13,14.6 ± 2.9,5 ± 0.5,7,IC50 [9]: > 100 µM
COCCn1[c]([Ag][Cl])[n+](Cc2ccccn2)c2ccccc21 [4a],156 ± 0.0,123 ± 6.1,64,9.74 ± 0.0,5.2 ± 0.1,4,31.1 ± 1.8,39.0 ± 0.0,16,156 ± 0.0,85.7 ± 0.6,64,16.2 ± 3.2,1.9 ± 0.4,7,3.38,3.01,26.0 ± 6.5,9.6 ± 0.3,11,smallest active concentration for biofilm inhibition [5]: 7.6 µM; biofilm inhibition [5]: 71 ± 3%
